Results published in patent US20090176711A1, “INHIBITORS OF AMYLOID PRECURSOR PROTEIN PROCESSING” (priority 2008, published 2009).
Entries after “also recorded” stand apart in the source; their conditions may differ. No end group written: not given here.

What was measured:
[1] = test system: cleavage of Sub M by rhBACE1; assay: HPLC analysis of the cleavage of Sub M by rhBACE1; assay type: biochemical, human; conditions: 25-fold amount of inhibitor, 420 nM β-secretase
Protocol: Substrate M (100 μM) was preincubated with complementary peptides ([…]) in assay buffer (100 μl) overnight at RT. rhBACE (140 nM) in assay buffer was added and incubated for 11 hr at RT. Cleavage products of Substrate M by rhBACE were quantitated after separation by C-18 reversed-phase column chromatography (GRACE VyDAC).
One of the advantages of the APP inhibitor described in the present invention is that it is a peptide or a mimetic that bind to the β-secretase cleavage site of APP, thus not affecting other β-secretase substrates. To confirm the specificity of the inventive APP inhibitor, two different types of substrates were used, APP Sub M and ST6Ga11. Both substrates are cleaved by β-secretase under normal conditions and the effect of the inventive APP inhibitor on the substrate cleavage was monitored by HPLC (See the schematic diagram in FIG. 16.) To carry out these experiments, the concentration of β-secretase required for cleavage of both substrates was determined as shown in FIG. 17. For substantial cleavage of ST6Ga11 substrate, 420 nM of the enzyme was required. Therefore, 420 nM of β-secretase was used for the following experiment.
Reversed-phase HPLC was also used to analyze the products of enzyme action in vitro. […] The cleavage products were identified at 215 nm and quantitated by integrating the area under each peak. […]

[2] = test system: cleavage of Substrate M by β-secretase; assay: Inhibition of cleavage of Substrate M by β-secretase by complementary and deletion peptides (Examples 1, 5, 6; assay format not stated); assay type: biochemical; conditions: for concentration dependent inhibitory activity, activity group: various concentrations, Substrate M (FIG. 8)
Protocol: So far we have focused on c-Sub M peptide. Serial deletions were made from N-terminus or C-terminus of c-Sub M (FIG. 5), and we investigated effect of the deletions on the cleavage of Substrate M. The optimum peptide/substrate ratio for inhibition on the cleavage of substrate was determined by observing the inhibition percentage at various peptide/substrate ratios (FIG. 4). Subsequently, the inhibitory activity of the deletion peptides were tested at 10 inhibitor/substrate ratio and the concentration of the Substrate M was 50 μM. Deletion of the first two amino acids from the N-terminus had little effect on the activity and deletion of five amino acids from the C-terminus of c-Sub M had little effect on the inhibitory activity (FIG. 6). Further deleted peptides were tested for inhibitory activity on the cleavage of Substrate M (FIG. 7).
The above-mentioned peptides that have inhibitory activity were tested at various concentrations for their inhibitory activities on their mutant substrate Substrate M (FIG. 8).

[3] = test system: γ-secretase (membrane fractions of N2a cells); assay: γ-Secretase activity assay on membrane fractions of N2a cells; assay type: biochemical, mouse; conditions: 200 μM peptide, 12.5 μM fluorogenic substrate, 1 hour preincubation
Protocol: Since γ-secretase is composed of four components, cloning of γ-secretase gene is impossible. Therefore, cell extracts were used as γ-secretase source. To obtain the cell extracts, after cell lysis with extraction buffer, the lysate was centrifuged at 10,000×g for 1 minute. Afterward, 2× reaction buffer and fluorogenic substrate was mixed and added to the cell lysate. Then, this mixture was incubated at 37° C. and γ-secretase activity was detected at excitation 335 to 355 nm and emission 495 to 510 nm.
γ-Secretase activity assay was performed on membrane fractions of N2a cells in the presence of several complementary peptides. After 12.5 μM fluorogenic substrate and 200 μM each of the complementary peptides were preincubated for 1 hour, γ-secretase was added to the mixture. In the course of time, the fluorogenic substrate was cleaved by the γ-secretase.

[4] = test system: Substrate M (Sub M, SEVNLDAEFR; β-secretase cleavage site of APPsw); assay: Binding of biotin-labeled Substrate M to immobilized complementary (HC) peptides; conditions: for binding activity for Sub M: HC peptides chemically coupled to plate, bio-Sub M
Protocol: (§1) Complementary peptides (0.2, 2, 20, and 200 μM) were dissolved in phosphate buffered saline (PBS) (pH 7.4) and fixed to microtiter wells for 5 hr at 37° C. The wells were blocked with blocking buffer (3% BSA/PBS) for 1 hr at 37° C. Either N-terminally biotinylated Substrate W or M (20 μM) in blocking buffer was added and incubated for overnight at 4° C. Streptavidin-horseradish peroxidase in blocking buffer was added to detect resulting bound substrates. The plate was incubated for 2 hr at room temperature (RT), followed by addition of 3,3′,5,5′-tetramethyl-benzidine (TMB) as substrate for horseradish peroxidase for color reaction.
(§2) Reacti-Bind™ maleic anhydride-activated polystyrene plate (Pierce, IL, USA) was coated with 50 μl of HC peptide (200 μM in distilled water) by chemical coupling for 3 h at room temperature (RT) and washed three times with phosphate buffered saline (PBS) containing 0.05% tween 20 (PBST). The plate was blocked with blocking buffer (0.5% gelatin in PBS) for 1 h at RT. After discarding blocking buffer, biotinylated BACE1 substrates (200 μM) in blocking buffer was applied on the plate and incubated for 2.5 h at RT. Each well was washed three times with PBST. The bound biotinylated BACE1 substrates were detected by incubation with streptavidin-horseradish peroxidase (Str-HRP, 125 mU/ml in blocking buffer) for 2 h at RT. Color reaction was carried out with 50 μl of 3,3′,5,5′-Tetramethylbenzidine Liquid Substrate (Sigma-Aldrich, MO, USA). After stopping the reaction by addition of an equal volume of 1 N HCl, absorbance at 450 nm was read in an automated ELISA reader (EL 312e, Bio-Tek Instruments, VT, USA). All assays were carried out in duplicate.

rhBACE1 = biological target: T1, rhBACE1 (Homo sapiens, UniProt P56817); assay: ELISA binding of rhBACE1 to immobilized c-Sub M
T1 construct: purchased R&D Systems, Inc
From the text: In one embodiment of the present invention, four HC decapeptides targeted to either wild type APP or APPsw may be designed. […] Therefore, there is possibility that c-Sub M or any compounds derived from c-Sub M may inhibit production of Aβ from wild type APP in cells.

HEK293-APP cells = assay: Transport of peptides into cells (FITC label); assay type: cell-based, human
From the text: To overcome the problem of APP inhibitor's inability to penetrate across the cell membrane, APP inhibitors were coupled with oligo-arginine (R9 means 9 Arginines), which is known to be a transporter peptide. These coupled peptides were labeled with FITC (Fluorescein isothiocyanate) using a linker AHX (aminohexanoic acid) to investigate whether the inhibitors pass through the cell membrane. FITC-AHX-c-Sub M-R9 and FITC-AHX-c-Sub MΔN1C1-R9 were made.
Oligo-arginine coupled APP inhibitors that were labeled with FITC were added to HEK293-APP cells to see whether the peptides pass through the cell membrane.

[5] = test system: APP processing in HEK293-APP cells; assay: APP inhibitor activity on HEK293-APP cells (βCTF Western blot); assay type: cell-based, human; conditions: γ-secretase inhibitor and cholesterol added
Protocol: In the neuronal cells of the brain, APP is processed by α-secretase or β-secretase. To investigate the effects of the inhibitors on the cell, a cell based assay system was developed as described in FIG. 10. C-terminal fragment of APP remaining on the cell membrane was detected by Western blot. The resulting C-terminal fragments, αCTF or βCTF are further processed by γ-secretase. However, if the cells are treated with the γ-secretase inhibitor, this processing is blocked. As a result, αCTF or βCTF accumulate in the cell. If β-secretase inhibitor or APP inhibitor is added, this processing is blocked and βCTF disappears.
In addition, γ-secretase inhibitor and cholesterol were added to the cells to increase βCTF level. Commercially available peptide-based β-secretase inhibitor was included as control (Lane 6, FIG. 11). To detect the N-terminal fragment of β-amyloid which is a product of APP processing, 6E10 antibody was employed. […] Recently, it has been reported that the commercially available peptide-based inhibitor had to be linked to an oligoarginine transporter peptide to have inhibitory activity against cells. Therefore, mimetic approach is adopted to produce cell permeable analogs. (Chang et al. J. Neurochemistry 2004; 89:1409-1416).
After confirming the ability of the oligo-arginine coupled APP inhibitors to enter the cells, the inhibitors were applied to HEK293-APP cells overexpressing APP to test their inhibitory activities on APP processing. […] This inhibitor started to show significant inhibitory activity beginning from 0.1 μM (lower panel).

[6] = biological target: T2, Substrate W (Sub W, SEVKMDAEFR; β-secretase cleavage site of wild type APP) (Homo sapiens, UniProt P05067); assay: Binding of biotin-labeled Substrate W to immobilized complementary (HC) peptides
T2 construct: […]; purchased Peptron, Inc; host or cells: chemical synthesis
Protocol: as §1
In particular, for Substrate W, complementary peptides (200 μM) dissolved in phosphate buffered saline (PBS) (pH 7.4) were chemically coupled to Reacti-Bind Maleic Anhydride Activated Polystyrene wells (Pierce Biotechnology, Inc.) for overnight at room temperature (RT). Remaining active sites of the plate were inactivated by adding ethanolamine (1 M) for 1 hr at RT. The wells were blocked with blocking buffer (3% BSA/PBS) for 1 hr at RT. N-terminally biotinylated Substrate W (20 μM) in blocking buffer was added and incubated for 3 hr at RT. Streptavidin-horseradish peroxidase in blocking buffer was added to detect resulting bound substrates. The plate was incubated for 2 hr at room temperature (RT), followed by addition of 3,3′,5,5′-tetramethyl-benzidine (TMB) as substrate for horseradish peroxidase for color reaction.
as §2

[7] = test system: γ-secretase cleavage in KEK293 APP cells; assay: Cell based γ-secretase assay (α-CTF Western); set-up: species or system human; conditions: cells treated for 9 hours
Protocol: In order to test these peptides in the cell for their inhibitory effect on γ-secretase cleavage, a cell based assay was developed. After KEK293 APP cells were cultured in 6 well culture plates with 90% confluency, the cells were treated for 9 hours with N-[N-(3,5-difluorophenacetyl)-L-alanyl]-(S)-phenylglycine t-butyl ester (DAPT) (Dovey H F et al, J. Neurochemistry 2001;76:173-181), which is a known γ-secretase inhibitor, and complementary peptides. The cells in each well were lysed and these lysates were separated with 15% tris-tricine gel. Western analysis was performed with R1 antibody as primary antibody and goat anti-rabbit-HRP as secondary antibody.

T1 sequence (P56817 46-501): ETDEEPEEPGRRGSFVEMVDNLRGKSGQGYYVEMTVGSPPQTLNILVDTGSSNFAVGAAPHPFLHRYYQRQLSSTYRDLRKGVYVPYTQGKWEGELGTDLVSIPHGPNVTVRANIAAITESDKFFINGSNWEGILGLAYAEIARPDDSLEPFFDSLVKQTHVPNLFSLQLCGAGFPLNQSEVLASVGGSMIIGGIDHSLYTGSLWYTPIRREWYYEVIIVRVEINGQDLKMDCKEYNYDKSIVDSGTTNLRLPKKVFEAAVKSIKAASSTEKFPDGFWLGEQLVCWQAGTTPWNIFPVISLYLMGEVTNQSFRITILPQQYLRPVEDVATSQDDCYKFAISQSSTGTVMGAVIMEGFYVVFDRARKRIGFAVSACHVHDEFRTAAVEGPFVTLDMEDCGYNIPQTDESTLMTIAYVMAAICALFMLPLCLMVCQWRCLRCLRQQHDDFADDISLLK

FCIQIHF (also: cyclic, mode of cyclisation not given here) [c-Sub M ΔN2C1]
Sub M cleavage blocked [1]: about 60%
concentration dependent inhibitory activity, activity group [2]: most active group

PQQYRCHRQR [rCh2 (3′→5′)]
inhibitory effect on γ-secretase activity [3]: about 80%

SEFCIQIHFR-NH2 [c-Sub M, SEFCIQIHFR]
binding activity for Sub M [4]: highest binding
binding activity for Sub M ([4]; listed as c-Sub): bound
binding to Substrate M ([4]; complementary peptide immobilized, biotin-labeled Substrate M): binds to Sub M appreciably and bind and binds its substrate Sub M
absorbance in binding test ([4]; substrate not specified): high absorbance
binding to rhBACE1 (rhBACE1): does not bind to rhBACE1
inhibition of cleavage of Substrate M by β-secretase ([2]; FIG. 4): inhibit cleavage
concentration dependent inhibitory activity, activity group [2]: less activity
transport into the cells (HEK293-APP cells): does not enter the cells
inhibitory activity on APP processing (βCTF) [5]: does not inhibit the processing of APP in cells; also recorded: none of the inhibitors tested showed inhibitory activity
binding to Sub W relative to c-Sub W ([6]; HC peptides chemically coupled, bio-Sub W): 4 fold
binding to Substrate W ([6]; complementary peptide immobilized, biotin-labeled Substrate W): binds the wild type substrate Sub W efficiently

C[C@H](NC(=O)Cc1cc(F)cc(F)c1)C(=O)N[C@H](C(=O)OC(C)(C)C)c1ccccc1 [DAPT, N-[N-(3,5-difluorophenacetyl)-L-alanyl]-(S)-phenylglycine t-butyl ester]
inhibition of γ-secretase activity in cells (α-CTF accumulation) [7]: inhibits γ-secretase activity very effectively
